# Laboratory results as given in patent US20140315933A1, “CHEMICAL COMPOUNDS” (Pfizer Limited, priority 2013, published 2014).
# Biological target: T1, URAT-1 transporter (Homo sapiens, UniProt Q96S37)
# T1 construct: expressed in transfected cells
# Assay: URAT-1 inhibitor activity: [14C]-uric acid uptake into CHO-URAT1(L)GFP#8 (CHO#8) cells, scintillation proximity
# Format: cell-based
# In short: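 Scintillation proximity read-out of 30 nM (final) [14C]-uric acid uptake over three hours at room temperature in chloride-free HEPES buffer pH 7.4. Compounds, 0–10 μM final with 0.25% DMSO, were added 15 minutes before substrate; cells were a clonal CHO line with human URAT1(L)-eGFP, preincubated 1 hour in chloride buffer.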
# T1 sequence (Q96S37 with tags, fused parts or gaps): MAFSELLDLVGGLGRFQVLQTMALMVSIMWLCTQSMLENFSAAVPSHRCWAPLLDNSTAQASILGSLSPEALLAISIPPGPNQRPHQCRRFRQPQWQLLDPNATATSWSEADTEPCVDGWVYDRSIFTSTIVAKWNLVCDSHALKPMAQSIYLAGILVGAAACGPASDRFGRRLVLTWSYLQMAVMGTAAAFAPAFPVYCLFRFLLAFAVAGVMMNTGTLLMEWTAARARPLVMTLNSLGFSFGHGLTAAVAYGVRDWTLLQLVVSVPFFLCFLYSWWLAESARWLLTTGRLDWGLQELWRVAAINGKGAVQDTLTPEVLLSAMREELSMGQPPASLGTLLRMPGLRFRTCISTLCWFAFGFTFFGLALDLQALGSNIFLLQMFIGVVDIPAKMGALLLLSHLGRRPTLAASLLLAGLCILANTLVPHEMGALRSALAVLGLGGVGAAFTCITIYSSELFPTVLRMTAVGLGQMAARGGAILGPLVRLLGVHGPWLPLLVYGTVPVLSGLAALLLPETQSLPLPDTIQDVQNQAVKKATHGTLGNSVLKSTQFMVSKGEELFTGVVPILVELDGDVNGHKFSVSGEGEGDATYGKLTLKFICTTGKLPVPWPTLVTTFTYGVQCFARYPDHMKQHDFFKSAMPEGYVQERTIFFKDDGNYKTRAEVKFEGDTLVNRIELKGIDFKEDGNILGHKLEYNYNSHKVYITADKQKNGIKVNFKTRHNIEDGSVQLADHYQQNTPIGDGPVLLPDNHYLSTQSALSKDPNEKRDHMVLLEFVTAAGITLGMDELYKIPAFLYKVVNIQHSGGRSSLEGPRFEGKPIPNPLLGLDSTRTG
row,IC50,Structure (SMILES)
1,619 nM,COc1ccc(C)c(Oc2cc(F)c(S(=O)(=O)Nc3nncs3)cc2Cl)c1 [compound 327]
2,> 830 nM,Cc1ccccc1Oc1cc(F)c(S(=O)(=O)Nc2nncs2)cc1Cl [compound 328]
3,606 nM,COc1c(F)ccc(Oc2cc(F)c(S(=O)(=O)Nc3nncs3)cc2Cl)c1Cl [compound 329]
4,2390 nM,O=S(=O)(Nc1nncs1)c1cc(Cl)c(Oc2cccc(Cl)c2)cc1F [compound 330]
5,> 6720 nM,CCOc1cc(C)ccc1Oc1cc(F)c(S(=O)(=O)Nc2nncs2)cc1Cl [compound 331]
6,> 2380 nM,O=S(=O)(Nc1nncs1)c1cc(Cl)c(Oc2c(F)cccc2Cl)cc1F [compound 332]
